# Experimental data: patent US20140357713A1, “ANTIMICROBIAL COMPOUNDS AND METHODS OF USE” (NexMed Holdings, Inc., priority 2012, published 2014)
# Where a name gives a salt, the structure may show the parent alone. Read-outs that look alike come from different tables or passages of the source.
# Legend:
# Assay type in all cases: cell-based
# [1] = tested on: Escherichia coli (ATCC 25922); experiment: Minimum inhibitory concentration (MIC) assay, Example 33; settings: for MIC: Escherichia coli
# How it was run: (§1)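 Antibacterial MICs come from CLSI-guided broth microdilution in CAMHB at 35° C, using a McFarland 0.5-standardized inoculum diluted 1:100 before 1:2 addition to drug wells.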
# [2] = tested on: Pseudomonas aeruginosa (ATCC 27853); experiment: as above; settings: Pseudomonas aeruginosa
# How it was run: as §1
# [3] = tested on: Escherichia coli (ATCC 25922); experiment: Time kill study, Example 33 (0 to 5 min); settings: 1×MIC
# How it was run: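 Performed per CLSI guidelines. Strain suspensions prepared as for MIC testing were mixed with compound solution in equal volume; samples taken at 0 min, 30 sec, 1 min and 5 mins were diluted in test medium, streaked on agar, and colonies counted after 24 to 48 hrs to give viable counts in Log10 CFU/mL.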
# [4] = tested on: Aspergillus niger (CMCC 98003); experiment: Time kill study, Example 33 (0 to 5 min); settings: 1×MIC
# Method: Thirty compounds were tested for antimicrobial activity using standard procedures and standard strains for both the minimum inhibitory concentration (MIC) assay and a time kill study. Both the MIC assay and the time kill study were performed according to Clinical and Laboratory Standards Institute (CLSI) guidelines. Three bacteria strains, Escherichia coli (ATCC 25922), Pseudomonas aeruginosa (ATCC 27853), Staphulococcus aureus (ATCC 29213), and two fungus strains, Candida albicans (ATCC 90029) and Aspergillus niger (CMCC 98003), were used in the experiments.
# The viable counts in Log10 CFU/mL at each time point were recorded.
# Time kill studies. Strain suspensions were prepared as described above for the MIC test, and strain suspensions and compound solutions were mixed in the same volume. Samples were removed at specified times including 0 min, 30 sec, 1 min and 5 mins, were diluted in the test medium and streaked on agar. Colonies were counted after 24 to 48 hrs of incubation.
# The MIC values for thirty compounds against Escherichia coli, Pseudomonas aeruginosa, Staphulococcus aureus, Candida albicans, and Aspergillus niger were recorded and are presented in Table 3 and Table 4.
# [5] = tested on: Burkholderia cepacia (ATCC 25416); experiment: MIC assay with different strains, Example 35
# Method: (§2) The minimum inhibitory concentration (MIC) is used to determine the lowest concentration of a test product claiming antimicrobial effects that will inhibit growth of a microorganism. Each microbial suspension was adjusted approximately 10^7 to 10^8 colony forming units (CFU) per mL and labeled as the stock suspension. The stock suspension was further diluted to 1:200 in Mueller Hinton broth to obtain a test sample having a concentration of […]. The test sample was then tested for MIC as described in M202.R02. After incubation, each tube was examined for turbidity, which indicated growth or no growth. For the tubes where the product rendered the media turbid, an aliquot of the media was streaked onto agar plates to confirm growth or lack of growth.
# [6] = tested on: Enterococcus faecalis (ATCC 19433); experiment: MIC assay with different strains, Example 35
# Method: as §2
# [7] = tested on: Klebsiella pneumonia (ATCC 11296); experiment: MIC assay with different strains, Example 35
# Method: as §2
# [8] = ATCC25922, Table 19 summary of Example 33 and Example 35, read-out: MIC
# [9] = ATCC25922, n = 1, read-out: MIC E. coli
# [10] = ATCC25922, n = 2, read-out: MIC E. coli
# [11] = ATCC27853, Table 19 summary, read-out: MIC
# [12] = ATCC27853, n = 1, read-out: MIC P. aeruginosa
# [13] = ATCC27853, n = 2, read-out: MIC P. aeruginosa
smiles,measurement,setting,value
"CCCCCCCCCCCCOC(=O)C(C)NC(C)C.Cl (stereo not drawn) [Nex-60, Dodecyl 2-(isopropylamino)propanoate hydrochloride]",MIC,[1]; [8],3130 µg/mL
same,MIC,[1]; [9],3130 µg/mL
same,MIC,[1]; [10],3130 µg/mL
same,MIC,[2]; [11],6250 µg/mL
same,MIC,[2]; [12],6250 µg/mL
same,MIC,[2]; [13],6250 µg/mL
same,"Viable counts, Escherichia coli time kill study",[3]; 0.5 min,<4.0 Log10 CFU/mL
same,"Viable counts, Escherichia coli time kill study",[3]; 1 min,3.7 Log10 CFU/mL
same,"Viable counts, Escherichia coli time kill study",[3]; 5 min,<3.52 Log10 CFU/mL
same,"Viable counts, Escherichia coli time kill study",[3]; time 0,5.88 Log10 CFU/mL
"CCCCCCCCCCCCOC(=O)C(C)NCCO.Cl (stereo not drawn) [Nex-61, Dodecyl 2-((2-hydroxyethyl)amino)propanoate hydrochloride]",MIC,[1]; [8],780 µg/mL
same,MIC,[1]; [9],780 µg/mL
same,MIC,[1]; [10],1560 µg/mL
same,MIC,[2]; [11],6250 µg/mL
same,MIC,[2]; [12],6250 µg/mL
same,MIC,[2]; [13],6250 µg/mL
same,"Viable counts, Escherichia coli time kill study",[3]; 0.5 min,5.54 Log10 CFU/mL
same,"Viable counts, Escherichia coli time kill study",[3]; 1 min,5.61 Log10 CFU/mL
same,"Viable counts, Escherichia coli time kill study",[3]; 5 min,4.9 Log10 CFU/mL
same,"Viable counts, Escherichia coli time kill study",[3]; time 0,5.78 Log10 CFU/mL
same,"Viable counts, Aspergillus niger time kill study",[4]; 0.5 min,5.30 Log10 CFU/mL
same,"Viable counts, Aspergillus niger time kill study",[4]; 1 min,5.16 Log10 CFU/mL
same,"Viable counts, Aspergillus niger time kill study",[4]; 5 min,5.11 Log10 CFU/mL
same,"Viable counts, Aspergillus niger time kill study",[4]; time 0,5.36 Log10 CFU/mL
"CCCCCCCCCCCCOC(=O)C(C)N(C)C (stereo not drawn) [Nex-05, Dodecyl 2-(dimethylamino)propanoate hydrochloride]",MIC,"[1]; ATCC25922, Table 19 summary of Example 33 and Example 35",3130 µg/mL
same,MIC,"[1]; ATCC25922, read-out: MIC E. coli, n = 1",3130 µg/mL
same,MIC,"[1]; ATCC25922, read-out: MIC E. coli, n = 2",3130 µg/mL
same,MIC E. coli,"[1]; n = 1, listed as Nex-88, hydrochloride",3130 µg/mL
same,MIC,"[2]; ATCC27853, Table 19 summary",6250 µg/mL
same,MIC,"[2]; ATCC27853, read-out: MIC P. aeruginosa, n = 1",6250 µg/mL
same,MIC,"[2]; ATCC27853, read-out: MIC P. aeruginosa, n = 2",6250 µg/mL
same,"Viable counts, Escherichia coli time kill study","[3]; 0.5 min, hydrochloride",<4.0 Log10 CFU/mL
same,"Viable counts, Escherichia coli time kill study","[3]; 0.5 min, listed as Nex-88, hydrochloride",<4.0 Log10 CFU/mL
same,"Viable counts, Escherichia coli time kill study","[3]; 1 min, listed as Nex-88, hydrochloride",<3.70 Log10 CFU/mL
same,"Viable counts, Escherichia coli time kill study","[3]; 5 min, listed as Nex-88, hydrochloride",<3.52 Log10 CFU/mL
same,MIC,[5]; Example 35,2.5%
same,Growth/no growth,[5]; Sample Concentration 0.039%,Growth
same,Growth/no growth,[5]; Sample Concentration 0.078%,Growth
same,Growth/no growth,[5]; Sample Concentration 0.156%,Growth
same,Growth/no growth,[5]; Sample Concentration 0.313%,Growth
same,Growth/no growth,[5]; Sample Concentration 0.625%,Growth
same,Growth/no growth,[5]; Sample Concentration 1.25%,Growth
same,MIC,[6]; Example 35,1.25%
same,Growth/no growth,[6]; Sample Concentration 0.039%,Growth
same,Growth/no growth,[6]; Sample Concentration 0.078%,Growth
same,Growth/no growth,[6]; Sample Concentration 0.156%,Growth
same,Growth/no growth,[6]; Sample Concentration 0.313%,Growth
same,Growth/no growth,[6]; Sample Concentration 0.625%,Growth
same,MIC,[7]; Example 35,0.625%
same,Growth/no growth,[7]; Sample Concentration 0.039%,Growth
same,Growth/no growth,[7]; Sample Concentration 0.078%,Growth
same,Growth/no growth,[7]; Sample Concentration 0.156%,Growth
"CCCCCCCCCCCCOC(=O)C(C)NC.Cl (stereo not drawn) [Nex-59, Dodecyl 2-(methylamino)propanoate hydrochloride]",MIC,[1]; [9],50 µg/mL
same,MIC,[1]; [10],50 µg/mL
same,MIC,[2]; [11],3130 µg/mL
same,MIC,[2]; [12],3130 µg/mL
same,MIC,[2]; [13],3130 µg/mL
same,"Viable counts, Escherichia coli time kill study",[3]; 0.5 min,5.04 Log10 CFU/mL
same,"Viable counts, Escherichia coli time kill study",[3]; 1 min,5.11 Log10 CFU/mL
same,"Viable counts, Escherichia coli time kill study",[3]; 5 min,4.56 Log10 CFU/mL
same,"Viable counts, Escherichia coli time kill study",[3]; time 0,5.34 Log10 CFU/mL
same,"Viable counts, Aspergillus niger time kill study",[4]; 0.5 min,5.30 Log10 CFU/mL
same,"Viable counts, Aspergillus niger time kill study",[4]; 1 min,5.33 Log10 CFU/mL
same,"Viable counts, Aspergillus niger time kill study",[4]; 5 min,5.18 Log10 CFU/mL
same,"Viable counts, Aspergillus niger time kill study",[4]; time 0,5.27 Log10 CFU/mL
same,MIC,"[5]; Burkholderia cepacia, ATCC25416, Table 19 summary, read-out: MIC",25000 µg/mL
same,MIC,[5]; Example 35,2.5%
same,Growth/no growth,[5]; Sample Concentration 0.01%,Growth
same,Growth/no growth,[5]; Sample Concentration 0.02%,Growth
same,Growth/no growth,[5]; Sample Concentration 0.04%,Growth
same,Growth/no growth,[5]; Sample Concentration 0.08%,Growth
same,Growth/no growth,[5]; Sample Concentration 0.16%,Growth
same,Growth/no growth,[5]; Sample Concentration 0.32%,Growth
same,Growth/no growth,[5]; Sample Concentration 0.63%,Growth
same,Growth/no growth,[5]; Sample Concentration 1.25%,Growth
same,MIC,"[6]; Enterococcus faecalis, ATCC19433, Table 19 summary, read-out: MIC",≥ 100 µg/mL
same,MIC,[6]; Example 35,≦0.01%
same,Growth/no growth,[6]; Sample Concentration 0.01%,No
same,Growth/no growth,[6]; Sample Concentration 0.02%,No
same,Growth/no growth,[6]; Sample Concentration 0.04%,No
same,Growth/no growth,[6]; Sample Concentration 0.08%,No
same,Growth/no growth,[6]; Sample Concentration 0.16%,No
same,Growth/no growth,[6]; Sample Concentration 0.32%,No
same,Growth/no growth,[6]; Sample Concentration 0.63%,No
same,Growth/no growth,[6]; Sample Concentration 1.25%,No
same,Growth/no growth,[6]; Sample Concentration 2.5%,No
same,MIC,[7]; Example 35,0.08%
same,MIC,"[7]; Klebsiella pneumoniae, ATCC11296, Table 19 summary, read-out: MIC",800 µg/mL
same,Growth/no growth,[7]; Sample Concentration 0.01%,Growth
same,Growth/no growth,[7]; Sample Concentration 0.02%,Growth
same,Growth/no growth,[7]; Sample Concentration 0.04%,Growth
same,Growth/no growth,[7]; Sample Concentration 0.08%,No
same,Growth/no growth,[7]; Sample Concentration 0.16%,No
same,Growth/no growth,[7]; Sample Concentration 0.32%,No
same,Growth/no growth,[7]; Sample Concentration 0.63%,No
same,Growth/no growth,[7]; Sample Concentration 1.25%,No
same,Growth/no growth,[7]; Sample Concentration 2.5%,No
"CCCCCCCCCCCCOC(=O)C(C)NCCN(CC)CC.Cl (stereo not drawn) [Nex-62, Dodecyl 2-((2-(diethylamino)ethyl)amino)propanoate dihydrochloride]",MIC,[1]; [8],100 µg/mL
same,MIC,[1]; [9],100 µg/mL
same,MIC,[1]; [10],100 µg/mL
same,MIC,[2]; [11],6250 µg/mL
same,MIC,[2]; [12],6250 µg/mL
same,MIC,[2]; [13],6250 µg/mL
same,"Viable counts, Escherichia coli time kill study",[3]; 0.5 min,4.78 Log10 CFU/mL
same,"Viable counts, Escherichia coli time kill study",[3]; 1 min,5.02 Log10 CFU/mL
same,"Viable counts, Escherichia coli time kill study",[3]; 5 min,3.82 Log10 CFU/mL
same,"Viable counts, Escherichia coli time kill study",[3]; time 0,4.82 Log10 CFU/mL
same,"Viable counts, Aspergillus niger time kill study",[4]; 0.5 min,5.32 Log10 CFU/mL
same,"Viable counts, Aspergillus niger time kill study",[4]; 1 min,5.21 Log10 CFU/mL
same,"Viable counts, Aspergillus niger time kill study",[4]; 5 min,5.02 Log10 CFU/mL
same,"Viable counts, Aspergillus niger time kill study",[4]; time 0,5.27 Log10 CFU/mL
